| SMILES | melting point |
| --- | --- |
| CCCC(=O)Nc1n[nH]c2c(F)c(F)c(Br)cc12 | 220 °C |
| O=C(Nc1n[nH]c2ccc(NS(=O)(=O)c3cccc(F)c3)cc12)c1ccccc1 [Example 38, N-[5-[[(3-fluorophenyl)sulphonyl]amino]-1H-indazol-3-yl]benzamide] | 225 °C |
| CCCC(=O)Nc1n[nH]c2cc(Br)c(Br)cc12 [Example 70, N-[5,6-dibromo-1H-indazol-3-yl]butanamide] | 250 °C |
| CCCC(=O)Nc1n[nH]c2c(F)c(F)c([N+](=O)[O-])cc12 [Example 106, N-(6,7-difluoro-5-nitro-1H-indazol-3-yl)butanamide] | 255 °C |
| CCCC(=O)Nc1n[nH]c2c(F)c(N3CCOCC3)c([N+](=O)[O-])cc12 [Example 112, N-(7-fluoro-5-nitro-6-morpholino-1H-indazol-3-yl)butanamide] | 250 °C |
| CCCC(=O)Nc1n[nH]c2c(F)c(N3CCOCC3)c(N)cc12 [Example 113, N-(7-fluoro-5-amino-6-morpholino-1H-indazol-3-yl)butanamide] | 180 °C |

Now from value to molecule:

| melting point | SMILES |
| --- | --- |
| 165 °C | CN1CCN(CC(=O)Nc2n[nH]c3cc(Cl)ccc23)CC1 |
| 230 °C | CCCC(=O)Nc1n[nH]c2ccc(C(F)(F)F)cc12 [Example 22, N-[5-(trifluoromethyl)-1H-indazol-3-yl]butanamide] |
| 153 °C | O=C(CN1CCCCC1)Nc1n[nH]c2cc(Cl)ccc12 [Example 76, N-(6-chloro-1H-indazol-3-yl)-1-piperidineacetamide] |
| 170 °C | O=C(CNC1CCCCC1)Nc1n[nH]c2cc(Cl)ccc12 [Example 79, N-(6-chloro-1H-indazol-3-yl)-2-(cyclohexylamino)acetamide] |
| 156 °C | O=C(CNCc1ccccc1)Nc1n[nH]c2cc(Cl)ccc12 [Example 80, 2-[(phenylmethyl)amino]-N-(6-chloro-1H-indazol-3-yl)acetamide] |
| 168 °C | O=C(CN1CCCC1)Nc1n[nH]c2cc(Cl)ccc12 [Example 85, N-(6-chloro-1H-indazol-3-yl)-1-pyrrolidineacetamide] |
| 104 °C | CN(C)CCNCC(=O)Nc1n[nH]c2cc(Cl)ccc12 [Example 86, N-(6-chloro-1H-indazol-3-yl)-2-[[2-(dimethylamino)ethyl]amino]acetamide] |
| 158 °C | O=C(CN1CCCCC1)Nc1n[nH]c2c(F)c(F)ccc12 [Example 118, N-(6,7-difluoro-1H-indazol-3-yl)-1-piperidineacetamide] |

— US6949579B2, “Aminoindazole derivatives and intermediates, preparation thereof, and pharmaceutical compositions thereof” (Aventis Pharma S.A., priority 2002, dated 2005)
